Consider one substance from paper PMC12867150, “A fungi-derived cyclic peptide enhances Th9-mediated antitumor immunity by targeting ZAP70 and SREBP1” (The Journal of Clinical Investigation, 2025).

For one assay, the system named is Raji-luciferase tumor. In words: Raji-luciferase xenograft, bioluminescence tumor radiance (Figure 8J-K). The settings on record: EpA-treated human Th9 CAR T cells 2 × 10^6 i.v.; n = 5; result in words. The format is in vivo, NSG mice. The source says:
Representative plots (A) and quantification (B) (n = 4). (C) Quantitative PCR analysis of IL9, IRF4, and SPI1 mRNA expression in human Th9 cells (n = 3). (D) Flow-cytometric analysis of mitochondrial membrane potential in human Th9 cells (n = 3). (E) Luciferase-based assay analysis of intracellular ATP levels in human Th9 cells (n = 5). (F) Flow-cytometric analysis of phosphorylated ZAP70 in human Th9 cells (n = 3). (G) Flow-cytometric analysis of TNF-α expression in human Th9 cells (n = 4). (H) Cytotoxicity assay of EpA-treated or control CD19 CAR Th9 cells against Raji lymphoma target cells at indicated effector-to-target (E/T) ratios (n = 3). (I) Schematic diagram of the in vivo Raji-luciferase xenograft model in NSG mice receiving control or EpA-treated human Th9 CAR T cells. (J and K) Representative bioluminescence imaging (J) and quantification of tumor radiance (K) in NSG mice at indicated time points after adoptive transfer. […] Statistical significance was determined using 2-tailed unpaired Student’s t test (B–H), 2-way ANOVA followed by Šidák’s post hoc test (K), and log-rank test (L). […]
For xenograft models, M-NSG mice were intravenously inoculated with 1 × 10^6 Raji-CD19 tumor cells. […] Tumor progression and immune cell infiltration were subsequently monitored according to experimental endpoints.

For the next assay, the system named is endogenous CD8+ T cells. In words: Cytokines and granzyme B/perforin in endogenous CD8+ T cells (Figure 3H, S4D-F). Also on record: TNF-α expression / IFN-γ expression / Expression of IFN-g of endogenous CD8⁺ T cells in tumor / Expression of TNF-α of endogenous CD8⁺ T cells in tumor: unit not given here. The format is in vivo, mouse. The settings on record: for Expression of IFN-g of endogenous CD8⁺ T cells in tumor: Supplemental Figure 4D; for Expression of TNF-α of endogenous CD8⁺ T cells in tumor: Supplemental Figure 4E; for Expression of GzmB+Perforin+ of endogenous CD8⁺ T cells in tumor: Supplemental Figure 4F. Here is the method:
C57BL/6 mice were subcutaneously injected with 5 × 10^5 B16-OVA melanoma cells. Five days after tumor implantation, mice received an intravenous infusion of 2 × 10^6 in vitro–differentiated Th9 cells (cultured for 5 days), which were derived from OT-II CD45.1 donor mice, accompanied by 4 × 10^5 OVA peptide–pulsed DCs via the tail vein. To enhance T cell engraftment and facilitate lymphodepletion, a single intraperitoneal injection of cyclophosphamide (200 mg/kg, Sigma, catalog C0768) was administered 1 day prior to T cell transfer. Mice were euthanized at designated time points for the collection and analysis of spleens, tumor-draining lymph nodes, and tumor tissues.
(§1) Details regarding staining panels (human and mouse), reagents (including clones and catalog numbers), acquisition settings, compensation/controls, and analysis procedures are provided in Supplemental Methods.
(§2) BioLegend, Cat. No. 422301 or Mouse TruStain FcX™, BioLegend, Cat. No. 101319) for 10 minutes at 4°C. For surface marker detection, cells were stained with fluorochrome-conjugated monoclonal antibodies in 96-well V-bottom plates and incubated on ice for 30 minutes. After staining, cells were washed twice and resuspended in FACS buffer for analysis.
(§3) Prior to intracellular cytokine staining, cells were restimulated for 4 hours with PMA (Absin, Cat. No. abs9107), ionomycin (Sigma-Aldrich, Cat. No. I0634), and brefeldin A (MedChemExpress, Cat. No. HY-16592). For intracellular cytokine staining, cells were first surface-stained as described above, then fixed and permeabilized using the BD Cytofix/Cytoperm™ kit (BD Biosciences, Cat. No. 554714) according to the manufacturer ’s protocol. Intracellular proteins were stained with directly conjugated antibodies targeting IL-9, IL-17a, IL-4, IFN-γ, TNF-α, FOXP3, p-ZAP70, Perforin, and […]
(§4) Antibodies used for mouse samples included those against IL-9 (PE, clone RM9A4, Biolegend, Cat. No. 514104), IFN-γ (PE, clone XMG1.2, Biolegend, Cat. No.
Cat. No. 103138), CD4 (APC/Cy7, clone E-AB-F1353UJ, Elabscience, Cat. No.
AF18028), CD8α (PerCP/Cy5.5, clone E-AB-F1104UJ, Elabscience, Cat. No. […]
clone E-AB-F1187UH, Elabscience, Cat. No. AF19854), TNF-α (BV421, clone MP6-XT22, Biolegend, Cat. No. 506328), FOXP3 (PE, clone FJK-16s, eBioscience, Cat. No.
Perforin (APC, clone S16009A, Biolegend, Cat. No. 154303) and Granzyme B (APC, clone QA16A02, Biolegend, Cat. No. 372203). For human samples, antibodies against CD4 (PerCP/Cy5.5, clone RPA-T4, Biolegend, Cat. No. 300530; APC/Cy7, clone OKT4, Biolegend, Cat. No. 317418), CD19 (APC/Cy7, clone SJ25C1, Biolegend, Cat.
No. 363009), IFN-γ (PE, clone 4S.B3, Biolegend, Cat. No. 502509), IL-9 (PE, clone

For the next assay, the system named is ZAP70. The assay is described as follows: CETSA of ZAP70 in Jurkat cell lysates (Figure 5C-D). The assay is classed as binding, Jurkat cells. The following applies: result in words. Here is the method: Jurkat or 293T cells were washed twice with PBS and resuspended in PBS containing protease and phosphatase inhibitors. Cells were lysed by 3 cycles of liquid nitrogen snap-freezing and thawing at room temperature. […] One aliquot from each group was maintained at room temperature, and the others were heated for 3 minutes at 3 °C increments from 43°C to 64°C. Samples were then analyzed by SDS-PAGE and immunoblotting to assess protein thermal stability and compound binding.

The subject of a further assay is phosphorylated ZAP70. In words: Flow cytometry of phosphorylated ZAP70 in Th9 cells (Figure 5E). The following applies: 30 minutes after activation; result in words. The assay is classed as cell-based, mouse. Here is the method: as §1, §2, §3, §4
Cat. No. 103138), CD4 (APC/Cy7, clone E-AB-F1353UJ, Elabscience, Cat. No. […]

Setting [1] is: endogenous CD8+, spleen, individual mice, n = 4.

Values joined by “and” are separate entries in the source; they are usually repeats but may differ in a detail not shown here. Equal values may be shown once.

anteiso-C15 Leu7 surfactin [EpA]: the tumor burden result with Raji-luciferase tumor is “markedly reduced tumor burden”. In addition, the “GzmB+ PRF1+ gate number” value in the assay on endogenous CD8+ T cells (CD8+ T cells in tumors, representative flow plot, Figure S4F) amounted to 30.0. Besides, in the assay with endogenous CD8+ T cells (setting [1]), the “GzmB and Perforin expression” value was 76.8 and 76 and 70.2 and 67.3; the IFN-γ expression was 11.6 and 15.2 and 19.5 and 6.9; the TNF-α expression is 6.15 and 4.55 and 6.06 and 5. Further, in the assay on endogenous CD8+ T cells (spleen, result in words), the “TNF-α expression of CD8+ T cells” value is on record as “remained unchanged” and the “granzyme B+ perforin+ CD8+ T cells” value is given as “pronounced increase”. In the assay with endogenous CD8+ T cells (replicate 1), the “Expression of IFN-g of endogenous CD8⁺ T cells in tumor” value (“Expression of IFN-g … in tumor” for short) stood at 2162, the “Expression of TNF-α of endogenous CD8⁺ T cells in tumor” value (shortened to “Expression of TNF-α … in tumor”) amounted to 989 and the “Expression of GzmB+Perforin+ of endogenous CD8⁺ T cells in tumor” value (“Expression of GzmB+Perforin+ … in tumor” below) is on record as 28.2. In the assay on endogenous CD8+ T cells (replicate 2), the “Expression of IFN-g … in tumor” value came to 2256, the “Expression of TNF-α … in tumor” value was 542 and the “Expression of GzmB+Perforin+ … in tumor” value came out at 30. In the assay on endogenous CD8+ T cells (replicate 3), the “Expression of IFN-g … in tumor” value is reported as 2381, the “Expression of TNF-α … in tumor” value is recorded as 1324 and the “Expression of GzmB+Perforin+ … in tumor” value stood at 29.9. For the same substance, in the assay on endogenous CD8+ T cells (replicate 4), the “Expression of IFN-g … in tumor” value amounted to 2246, the “Expression of TNF-α … in tumor” value was 780 and the “Expression of GzmB+Perforin+ … in tumor” value is 58.8. Also, the “TNF-α expression of CD8+ T cells” value in the assay with endogenous CD8+ T cells (tumors, result in words) is recorded as “upregulated TNF-α expression”. In addition, the “thermal stability of ZAP70” value with ZAP70 was “increased thermal stability of ZAP70”. Further, the ZAP70 phosphorylation result with phosphorylated ZAP70 is “significantly enhanced ZAP70 phosphorylation”.
